Series [1] can be described thus: Metabolic stability in human serum at 10 mg/ml at 37 degC after 2 hrs by HPLC analysis. The series is classed as ADME.
The nature of series [2]: Aqueous solubility of compound in 50 mM sodium succinate buffer at 2 mM at pH 5 by 1D 1H NMR spectroscopic analysis. The series is classed as physicochemical. The note with it: for solubility: buffer, pH 5, 2000 µM.
Series [3] can be described thus: Induction of programmed cell death in human MEC1 cells at 200 uM after 2 hrs by Annexin-V/propidium iodide staining based FACS analysis. In kind it is functional.
Series [4] is described as follows: Induction of cell death in human Jurkat cells at 300 uM after 2 hrs by Annexin-V/propidium iodide staining based FACS analysis. The series is classed as functional. For orientation: A flow cytometer gives signals particle by particle.
Series [5] in a line: Induction of cell death in human CEM cells at 300 uM after 2 hrs by Annexin-V/propidium iodide staining based FACS analysis. In kind it is functional, CCRF-CEM.
A short description of series [6]: Induction of cell death in human MDA-MB-231 cells at 300 uM after 2 hrs by Annexin-V/propidium iodide staining based FACS analysis. The series is classed as functional.
A short description of series [7]: Induction of cell death in human MCF7 cells at 300 uM after 2 hrs by Annexin-V/propidium iodide staining based FACS analysis. The series is classed as functional.
Series [8] in a line: Induction of cell death in human AU565 cells at 300 uM after 2 hrs by Annexin-V/propidium iodide staining based FACS analysis. The series is classed as functional.
The nature of series [9]: Induction of cell death in human HBL100 cells at 300 uM after 2 hrs by Annexin-V/propidium iodide staining based FACS analysis. The series is classed as functional, HBL-100.
Series [10] is described as follows: Induction of cell death in human Raji cells at 300 uM after 2 hrs by Annexin-V/propidium iodide staining based FACS analysis. In kind it is functional.
A short description of series [11]: Induction of cell death in human Ramos cells at 300 uM after 2 hrs by Annexin-V/propidium iodide staining based FACS analysis. The series is classed as functional.
Series [12] can be described thus: Induction of cell death in human RPMI8226 cells at 300 uM after 2 hrs by Annexin-V/propidium iodide staining based FACS analysis. In kind it is functional, RPMI-8226.
The nature of series [13]: Induction of cell death in human RPMI8866 cells at 300 uM after 2 hrs by Annexin-V/propidium iodide staining based FACS analysis. In kind it is functional, RPMI-8866.
Series [14] can be described thus: Induction of cell death in human HeLa cells at 300 uM after 2 hrs by Annexin-V/propidium iodide staining based FACS analysis. In kind it is functional.
A short description of series [15]: Induction of cell death in human MEC1 cells at 300 uM after 2 hrs by Annexin-V/propidium iodide staining based FACS analysis. In kind it is functional.
Series [16] concerns CLL. The experiment in a line: Induction of programmed cell death in human CLL cells harboring TP53 17p deletion mutant at 50 to 400 uM after 2 hrs by Annexin-V/propidium iodide staining based FACS analysis. In kind it is functional.
In series [17] the test system is CLL. The experiment in a line: Induction of programmed cell death in human CLL cells harboring ATM 11q deletion mutant at 50 to 400 uM after 2 hrs by Annexin-V/propidium iodide staining based FACS analysis. The series is classed as functional.
A short description of series [18]: Induction of cell death in human U937 cells at 300 uM after 2 hrs by Annexin-V/propidium iodide staining based FACS analysis. In kind it is functional, U-937.
The nature of series [19]: Induction of cell death in human JM1 cells at 300 uM after 2 hrs by Annexin-V/propidium iodide staining based FACS analysis. In kind it is functional.
Series [20] can be described thus: Induction of cell death in human OVCAR10 cells at 300 uM after 2 hrs by Annexin-V/propidium iodide staining based FACS analysis. The series is classed as functional.
A short description of series [21]: Induction of cell death in human A549 cells at 300 uM after 2 hrs by Annexin-V/propidium iodide staining based FACS analysis. The series is classed as functional.
A short description of series [22]: Induction of cell death in human LNCAP cells at 300 uM after 2 hrs by Annexin-V/propidium iodide staining based FACS analysis. The series is classed as functional.
A short description of series [23]: Cytotoxicity against human B lymphocytes assessed as cell death at 50 to 400 uM after 2 hrs by Annexin-V/propidium iodide staining based FACS analysis. In kind it is toxicity.
Series [24] deals with CLL. Description: Induction of programmed cell death in human CLL cells at 50 to 400 uM after 2 hrs by Annexin-V/propidium iodide staining based FACS analysis. In kind it is functional.
Series [25] is described as follows: Drug degradation in human serum up to 5 mins by HPLC analysis. In kind it is ADME.
Series [26] is described as follows: Aqueous solubility of compound in 50 mM sodium succinate buffer at >1 mM at pH 5 by 1D 1H NMR spectroscopic analysis. In kind it is physicochemical.
The nature of series [27]: Drug degradation in human serum at 10 mg/ml after 2 hrs by HPLC analysis. The series is classed as ADME.
The target in series [28] is Leukocyte surface antigen CD47 (Homo sapiens, UniProt Q08722). The experiment in a line: Binding affinity to CD47 receptor in human biotinylated MEC1 cell membranes by biolayer interferometry. (Biolayer interferometry detects binding as a change in optical thickness at a sensor tip.)
Leukocyte surface antigen CD47, sequence (Q08722 whole entry): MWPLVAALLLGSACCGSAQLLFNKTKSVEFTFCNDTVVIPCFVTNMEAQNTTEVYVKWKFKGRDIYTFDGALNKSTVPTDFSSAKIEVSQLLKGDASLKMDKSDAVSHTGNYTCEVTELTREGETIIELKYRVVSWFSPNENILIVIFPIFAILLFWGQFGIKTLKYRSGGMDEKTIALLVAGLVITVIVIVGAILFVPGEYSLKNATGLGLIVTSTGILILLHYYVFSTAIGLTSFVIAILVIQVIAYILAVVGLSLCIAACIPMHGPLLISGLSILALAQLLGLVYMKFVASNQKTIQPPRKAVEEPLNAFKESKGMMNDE

In brackets after ≈: the same amount, converted by molar mass. Activity calls are given as the source filed them. No cut-off for these calls is given here. Square brackets hold non-standard residues; d marks the D form. Peptide text beside a SMILES is read from it. * marks the point of attachment. X1 = N=C(N)NCCC[C@H](CN)C(=O)*; β3hK = NCCCC[C@H](N)CC(=O)O

Take `CSCC[C@H](NC(=O)[C@@H](NC(=O)[C@@H](NC(=O)[C@H](Cc1ccc(O)cc1)NC(=O)[C@H](Cc1ccccc1)NC(=O)[C@H](CCCNC(=N)N)NC(C)=O)C(C)C)C(C)C)C(=O)N[C@@H](Cc1c[nH]c2ccccc12)C(=O)N[C@@H](CCCCN)C(N)=O`: in [1], the Stability entry was “Stable”. For the same molecule, the solubility (as a rule, the concentration that dissolves in the medium under given conditions) in series [2] is “Insoluble”. Further, the Activity in series [3] came out at 27%.

Regarding `CSCC[C@H](NC(=O)[C@@H](NC(=O)[C@@H](NC(=O)[C@H](Cc1ccc(O)cc1)NC(=O)[C@H](Cc1ccccc1)NC(=O)[C@H](C)NC(=O)[C@H](N)CCCCN)C(C)C)C(C)C)C(=O)N[C@@H](Cc1c[nH]c2ccccc12)C(=O)N[C@@H](CCCCN)C(=O)N[C@H](CCCCN)C(=O)O` (H-[dK]AFYVVMWK[dK]-OH), the Activity in series [3] amounted to 44%.

Molecule `CSCC[C@H](NC(=O)[C@H](C)NC(=O)[C@@H](NC(=O)[C@H](Cc1ccc(O)cc1)NC(=O)[C@H](Cc1ccccc1)NC(=O)[C@H](CCCNC(=N)N)NC(=O)[C@H](N)CCCCN)C(C)C)C(=O)N[C@@H](Cc1c[nH]c2ccccc12)C(=O)N[C@@H](CCCCN)C(=O)N[C@H](CCCCN)C(=O)O` (H-[dK]RFYVAMWK[dK]-OH) came in with an Activity in series [3] of 30%.

Turning to `CSCC[C@H](NC(=O)[C@@H](NC(=O)[C@@H](NC(=O)[C@H](Cc1ccc(O)cc1)NC(=O)[C@H](Cc1ccccc1)NC(=O)[C@H](CCCNC(=N)N)NC(=O)[C@@H](N)CCCCN)C(C)C)C(C)C)C(=O)N[C@@H](Cc1c[nH]c2ccccc12)C(=O)N[C@@H](CCCCN)C(=O)N[C@@H](CCCCN)C(=O)O`, the Activity in series [4], in series [5], in [6], in [7], in [8] and in series [9] was 30% throughout. Besides, the Activity in series [10], in series [11], in series [12], in series [13], in [14] and in series [15] was 30% in each case. Moreover, the Activity in series [18] is 30%; in [19], 30%; in series [20] it was 30%; in series [21], 30%; in series [22] it was 30%; in series [23] it was “Non-Toxic”. Besides, in [3], the Activity worked out at 23%. Moreover, the result in series [16], in series [17] and in [24] was Active. The Stability result in series [25] is “Unstable”. For the same molecule, the solubility result in [26] was “Soluble”.

`CSCC[C@H](NC(=O)[C@@H](NC(=O)[C@@H](NC(=O)[C@H](Cc1ccc(O)cc1)NC(=O)[C@H](Cc1ccccc1)NC(=O)[C@H](CCCNC(=N)N)NC(=O)[C@H](N)CCCCN)C(C)C)C(C)C)C(=O)N[C@@H](C)C(=O)N[C@@H](CCCCN)C(=O)N[C@H](CCCCN)C(=O)O` (H-[dK]RFYVVMAK[dK]-OH) returned an Activity in [3] of 35%.

With Ac-KRFYVVMWKK-NH2, in series [27], the Stability result is recorded as “Unstable”. Further, the solubility entry in series [26] is given as “Soluble”. Also, the Activity in series [3] was found to be 30%.

With `CCCCC(NC(=O)[C@@H](NC(=O)[C@@H](NC(=O)[C@H](Cc1ccc(O)cc1)NC(=O)[C@H](Cc1ccccc1)NC(=O)[C@H](CCCNC(=N)N)NC(=O)[C@H](N)CCCCN)C(C)C)C(C)C)C(=O)N[C@@H](Cc1c[nH]c2ccccc12)C(=O)N[C@@H](CCCCN)C(=O)N[C@H](CCCCN)C(=O)O` (stereo not given in full), the affinity in series [28], expressed as Kd, was 18 µM. The same molecule gave an Activity in series [3] of 47%.

`CSCC[C@H](NC(=O)[C@@H](NC(=O)[C@@H](NC(=O)[C@H](Cc1ccc(O)cc1)NC(=O)[C@H](Cc1ccccc1)NC(=O)[C@@H](N)CCCNC(=N)N)C(C)C)C(C)C)C(=O)N[C@@H](Cc1c[nH]c2ccccc12)C(=O)N[C@@H](CCCCN)C(=O)O` returned a solubility at 2000 µM in series [2] (50 mM sodium succinate buffer, pH 5) of 30 µM (≈ 33.9 µg/mL). The Activity in [3] amounted to 13%.

In [3], `CSCC[C@H](NC(=O)[C@@H](NC(=O)[C@@H](NC(=O)[C@H](Cc1ccc(O)cc1)NC(=O)[C@H](C)NC(=O)[C@H](CCCNC(=N)N)NC(=O)[C@H](N)CCCCN)C(C)C)C(C)C)C(=O)N[C@@H](Cc1c[nH]c2ccccc12)C(=O)N[C@@H](CCCCN)C(=O)N[C@H](CCCCN)C(=O)O` (H-[dK]RAYVVMWK[dK]-OH) returned an Activity of 6%.

`CC(C)[C@H](NC(=O)[C@H](Cc1ccc(O)cc1)NC(=O)[C@H](Cc1ccccc1)NC(=O)[C@H](CCCNC(=N)N)NC(=O)[C@H](N)CCCCN)C(=O)N[C@H](C(=O)N[C@@H](C)C(=O)N[C@@H](Cc1c[nH]c2ccccc12)C(=O)N[C@@H](CCCCN)C(=O)N[C@H](CCCCN)C(=O)O)C(C)C` (H-[dK]RFYVVAWK[dK]-OH) gave an Activity in [3] of 6%.

On to `CSCC[C@H](NC(=O)[C@@H](NC(=O)[C@@H](NC(=O)[C@H](Cc1ccc(O)cc1)NC(=O)[C@H](Cc1ccccc1)NC(=O)[C@@H](CN)CCCNC(=N)N)C(C)C)C(C)C)C(=O)N[C@@H](Cc1c[nH]c2ccccc12)C(=O)N[C@@H](CCCCN)CC(=O)O` (X1-FYVVMW[β3hK]-OH), for which, in series [1], the Stability entry is recorded as “Stable”. Also, the solubility result in series [2] was “Insoluble”.

Regarding `CSCC[C@H](NC(=O)[C@@H](NC(=O)[C@@H](NC(=O)[C@H](C)NC(=O)[C@H](Cc1ccccc1)NC(=O)[C@H](CCCNC(=N)N)NC(=O)[C@H](N)CCCCN)C(C)C)C(C)C)C(=O)N[C@@H](Cc1c[nH]c2ccccc12)C(=O)N[C@@H](CCCCN)C(=O)N[C@H](CCCCN)C(=O)O`, in series [3], the Activity came to 0%.

In [3], `CSCC[C@H](NC(=O)[C@@H](NC(=O)[C@H](C)NC(=O)[C@H](Cc1ccc(O)cc1)NC(=O)[C@H](Cc1ccccc1)NC(=O)[C@H](CCCNC(=N)N)NC(=O)[C@H](N)CCCCN)C(C)C)C(=O)N[C@@H](Cc1c[nH]c2ccccc12)C(=O)N[C@@H](CCCCN)C(=O)N[C@H](CCCCN)C(=O)O` (H-[dK]RFYAVMWK[dK]-OH) displayed an Activity of 12%.

H-KRFYGGMWKK-OH gave an Activity in series [3] of 2%.

In series [3], `CSCC[C@H](NC(=O)[C@@H](NC(=O)[C@@H](NC(=O)[C@H](Cc1ccc(O)cc1)NC(=O)[C@H](Cc1ccccc1)NC(=O)[C@H](CCCNC(=N)N)NC(=O)[C@H](N)CCCCN)C(C)C)C(C)C)C(=O)N[C@@H](Cc1c[nH]c2ccccc12)C(=O)N[C@@H](C)C(=O)N[C@H](CCCCN)C(=O)O` (H-[dK]RFYVVMWA[dK]-OH) came in with an Activity of 46%.

These data come from ChEMBL document CHEMBL3853322, “Thrombospondin-1 Mimetic Agonist Peptides Induce Selective Death in Tumor Cells: Design, Synthesis, and Structure-Activity Relationship Studies” (J Med Chem, 2016).
